Measurements as given in ChEMBL document CHEMBL1201862, “PubChem BioAssay data set” (2004).
The source made the active and inactive calls.

Tests used:
Cytochrome P450 1A2 = target: T1, Cytochrome P450 1A2 (Homo sapiens, UniProt P05177);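 also: PubChem cytochrome P450 panel assay, CYP1A2 panel member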
T1 sequence (P05177 whole entry): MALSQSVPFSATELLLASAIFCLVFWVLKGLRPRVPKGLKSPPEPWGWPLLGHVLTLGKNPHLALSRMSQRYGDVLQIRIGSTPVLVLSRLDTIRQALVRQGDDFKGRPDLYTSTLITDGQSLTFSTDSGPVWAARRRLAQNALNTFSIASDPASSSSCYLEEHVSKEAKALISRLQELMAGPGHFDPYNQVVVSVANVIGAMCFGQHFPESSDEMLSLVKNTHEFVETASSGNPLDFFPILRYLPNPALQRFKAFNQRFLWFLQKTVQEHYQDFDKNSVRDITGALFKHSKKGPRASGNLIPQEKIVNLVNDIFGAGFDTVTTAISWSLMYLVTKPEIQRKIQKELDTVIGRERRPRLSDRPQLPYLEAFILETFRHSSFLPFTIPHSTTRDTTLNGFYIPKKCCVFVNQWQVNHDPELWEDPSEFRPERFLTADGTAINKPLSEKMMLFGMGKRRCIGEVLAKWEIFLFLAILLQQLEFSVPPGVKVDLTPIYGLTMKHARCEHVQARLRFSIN

Cytochrome P450 2C19 = Cytochrome P450 2C19 (Homo sapiens, UniProt P33261); test: Cytochrome panel assay with activity outcomes. Panel member name: p450-cyp2c19 Compounds with AC50 equal or less than 10 uM are considered active; type: functional
cells = type: functional
[1] = target: FAD-linked sulfhydryl oxidase ALR (Homo sapiens, UniProt P55789); test: ALR-catalysed DTT oxidation blockers – biochemical, H2O2 detection, luminescence, cherry-pick, dose response (AID 493248)
Cytochrome P450 3A4 = Cytochrome P450 3A4 (Homo sapiens, UniProt P08684);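 also: CYP3A4 tested as one member of a cytochrome P450 panel screen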
Cytochrome P450 2D6 = Cytochrome P450 2D6 (Homo sapiens, UniProt P10635);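 also: CYP2D6 member of a cytochrome P450 panel assay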
[2] = Luminescence Cell-Based Dose Response HTS to Identify Inhibitors of 5'UTR Stem-Loop Driven Prion Protein mRNA Translation in H4 Neuroglioblastoma Cells. [Related pubchem assays: 1827 (Project Summary), 1813 (Primary HTS)]; type: functional
[3] = luciferase reporter signal suppression in cells – H4 neuroglioma cells, luminescence, dose response (AID 1990); type: functional, cell-based
[4] = alpha-synuclein stem-loop luciferase translation blockers – H4 neuroglioma cells, luminescence, confirmation (AID 1988); type: functional, cell-based
Cytochrome P450 2C9 = Cytochrome P450 2C9 (Homo sapiens, UniProt P11712)
[5] = HIV-1 AD8 envelope cell-cell fusion blockers – cherry-pick, dose response (AID 652062); type: functional, cell-based;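 also: luciferase signal from cell-cell fusion driven by HIV-1 clade B AD8 Env; potency is for inhibitors of fusion seen as a drop in luminescence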
[6] = Trypanosoma cruzi growth suppression in host cells – NIH3T3 host cells, beta-gal luminescence, confirmation (AID 2044); type: functional, cell-based;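 also: intracellular parasites grown in NIH/3T3 mouse fibroblasts as host cells; luminescent beta-galactosidase reporter signal from transgenic T. cruzi replicating inside host cells; inhibitors lower the luminescence signal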
[7] = microbe, parasite or virus in culture; type: functional; details: Mycobacterium tuberculosis
[8] = NIH3T3 cell viability loss – ATP luminescence, mouse fibroblasts, counter-screen, dose response (AID 2010); type: functional, cell-based;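 also: cells exposed to compound for about 90 hours before reading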
[9] = target: T2, Polyadenylate-binding protein 1 (Homo sapiens, UniProt P11940); test: MLLE domain peptide-binding blockers, IC50 – biochemical, fluorescence polarization, FITC-PAM2 peptide, dose response (AID 602259); type: functional; details: read-out: IC50_Mean
[10] = target: T3, RNA-binding protein pos-1 (Caenorhabditis elegans, UniProt G5EF15); test: disruptors of C. elegans POS-1 RNA interaction – biochemical, fluorescence polarization, dose response (AID 1964);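 also: purified POS-1 fused to maltose binding protein made in E. coli; potency of compounds blocking POS-1 binding to fluorescent RNA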
T3 sequence (G5EF15 whole entry): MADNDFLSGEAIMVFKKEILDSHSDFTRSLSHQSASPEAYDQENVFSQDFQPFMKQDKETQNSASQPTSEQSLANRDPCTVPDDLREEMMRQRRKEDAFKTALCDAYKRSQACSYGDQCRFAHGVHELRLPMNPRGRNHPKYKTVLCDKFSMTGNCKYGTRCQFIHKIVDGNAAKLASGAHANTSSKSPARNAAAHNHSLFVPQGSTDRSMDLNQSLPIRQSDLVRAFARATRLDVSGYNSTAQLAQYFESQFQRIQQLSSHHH

[11] = target: T2, Polyadenylate-binding protein 1; test: MLLE binding blockers, Cy5 peptide tracer – biochemical, fluorescence polarization, Cy5-PAM2 peptide, secondary, miRNA deadenylation inhibitor project, dose response (AID 602260); type: functional; details: read-out: IC50_Mean
[12] = target: T4, Zinc finger protein mex-5 (Caenorhabditis elegans, UniProt Q9XUB2); test: potency of MEX-5 RNA-binding blockers – biochemical, C. elegans, fluorescence polarization, dose response (AID 1960)
T4 sequence (Q9XUB2 whole entry): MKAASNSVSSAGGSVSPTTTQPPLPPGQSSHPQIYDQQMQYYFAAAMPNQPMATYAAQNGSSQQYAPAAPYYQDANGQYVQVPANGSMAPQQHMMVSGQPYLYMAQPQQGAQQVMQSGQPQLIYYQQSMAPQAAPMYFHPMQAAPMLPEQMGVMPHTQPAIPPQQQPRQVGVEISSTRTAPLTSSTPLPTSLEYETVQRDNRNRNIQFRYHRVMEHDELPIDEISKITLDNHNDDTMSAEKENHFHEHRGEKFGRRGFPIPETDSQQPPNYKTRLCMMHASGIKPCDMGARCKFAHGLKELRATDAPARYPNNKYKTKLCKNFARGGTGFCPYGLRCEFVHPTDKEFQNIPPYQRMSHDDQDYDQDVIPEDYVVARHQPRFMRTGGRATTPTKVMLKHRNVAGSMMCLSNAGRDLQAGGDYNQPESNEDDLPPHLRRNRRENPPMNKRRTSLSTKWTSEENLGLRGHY

H4 = test: Luminescence Cell-Based Dose Response HTS to Identify Activators of 5'UTR Stem-Loop Driven Prion Protein mRNA Translation in H4 Neuroglioblastoma Cells. [Related pubchem assays: 1829 (Project Summary), 1814 (Primary HTS)]; type: functional; details: Homo sapiens
[13] = Luminescence Cell-Based Dose Response HTS to Identify Activators of Luciferase Translation or Activity in H4 […] Cells. [Related pubchem assays: 1829 (Project Summary), 1814 (Primary HTS)]; type: functional
[14] = Luminescence Cell-Based Dose Confirmation HTS to Identify Activators of 5'UTR Stem-Loop Driven Alpha-Synuclein mRNA Translation in H4 Neuroglioblastoma Cells. [Related pubchem assays: 1829 (Project Summary), 1814 (Primary HTS)]; type: functional
[15] = viability of uninfected HEp-2 cells – cell-based, HTS, cytotoxicity control for RSV inhibitor project, dose response (AID 2410); type: functional; details: human respiratory syncytial virus
[16] = target: T5, Heat shock factor protein 1 (Mus musculus, UniProt P38532); test: enhancement of HSF1-driven luciferase signal – cell-based, NIH3T3, luminescence, dose retest, confirmation (AID 435004); type: functional;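 also: stress induced by proteasome inhibitor MG132 added 30 min after compound; luciferase reporter driven by HSF1 response element in NIH3T3 cells; actives raise luminescence as potentiators of the MG132 stress response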
T5 sequence (P38532 whole entry): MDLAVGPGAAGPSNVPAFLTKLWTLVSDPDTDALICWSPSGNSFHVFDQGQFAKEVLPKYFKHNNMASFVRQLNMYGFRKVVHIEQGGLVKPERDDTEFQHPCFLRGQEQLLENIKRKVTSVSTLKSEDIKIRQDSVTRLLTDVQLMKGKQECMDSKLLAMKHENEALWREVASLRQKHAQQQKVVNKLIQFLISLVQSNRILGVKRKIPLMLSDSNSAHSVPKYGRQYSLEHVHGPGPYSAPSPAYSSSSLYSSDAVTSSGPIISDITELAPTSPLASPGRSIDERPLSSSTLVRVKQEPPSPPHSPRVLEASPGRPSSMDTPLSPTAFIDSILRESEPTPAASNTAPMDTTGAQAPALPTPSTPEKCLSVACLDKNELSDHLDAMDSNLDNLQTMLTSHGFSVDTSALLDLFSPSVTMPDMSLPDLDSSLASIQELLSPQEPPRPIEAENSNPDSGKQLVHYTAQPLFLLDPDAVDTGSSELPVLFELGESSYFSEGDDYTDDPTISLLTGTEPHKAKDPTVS

Sequence of Cytochrome P450 2C19 (P33261 whole entry): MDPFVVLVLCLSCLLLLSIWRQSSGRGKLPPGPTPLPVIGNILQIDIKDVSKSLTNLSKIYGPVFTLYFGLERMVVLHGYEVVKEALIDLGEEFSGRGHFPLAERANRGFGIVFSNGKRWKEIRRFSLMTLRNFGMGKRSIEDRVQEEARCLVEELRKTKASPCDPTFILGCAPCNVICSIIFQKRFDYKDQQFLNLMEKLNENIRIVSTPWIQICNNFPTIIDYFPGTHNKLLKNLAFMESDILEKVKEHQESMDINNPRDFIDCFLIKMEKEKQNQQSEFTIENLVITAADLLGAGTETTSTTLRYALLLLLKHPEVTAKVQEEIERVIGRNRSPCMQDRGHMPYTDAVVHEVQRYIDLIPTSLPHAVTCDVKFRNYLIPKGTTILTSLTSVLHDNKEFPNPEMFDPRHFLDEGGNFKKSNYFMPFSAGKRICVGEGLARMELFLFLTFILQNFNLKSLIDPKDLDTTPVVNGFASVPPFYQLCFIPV
Sequence of Cytochrome P450 2C9 (P11712 whole entry, the tested form may be a part): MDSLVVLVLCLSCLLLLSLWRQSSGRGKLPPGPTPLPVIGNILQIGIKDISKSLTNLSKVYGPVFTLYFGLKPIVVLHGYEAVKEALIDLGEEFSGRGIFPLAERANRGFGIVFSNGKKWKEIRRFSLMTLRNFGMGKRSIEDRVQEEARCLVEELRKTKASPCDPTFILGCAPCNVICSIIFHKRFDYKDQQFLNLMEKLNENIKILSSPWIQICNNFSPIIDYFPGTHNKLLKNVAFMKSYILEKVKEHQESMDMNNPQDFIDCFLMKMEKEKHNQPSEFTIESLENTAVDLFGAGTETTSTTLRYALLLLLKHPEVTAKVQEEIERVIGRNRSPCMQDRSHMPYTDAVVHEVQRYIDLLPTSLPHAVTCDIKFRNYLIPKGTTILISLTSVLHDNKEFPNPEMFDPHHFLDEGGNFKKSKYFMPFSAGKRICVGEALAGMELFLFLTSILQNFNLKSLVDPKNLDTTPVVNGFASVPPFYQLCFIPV
Sequence of FAD-linked sulfhydryl oxidase ALR (P55789 whole entry): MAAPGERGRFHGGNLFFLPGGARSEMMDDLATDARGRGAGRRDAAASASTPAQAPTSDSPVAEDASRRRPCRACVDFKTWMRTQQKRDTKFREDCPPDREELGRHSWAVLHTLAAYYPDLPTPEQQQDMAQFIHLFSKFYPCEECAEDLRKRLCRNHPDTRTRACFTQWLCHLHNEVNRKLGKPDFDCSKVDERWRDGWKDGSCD
Sequence of Cytochrome P450 2D6 (P10635 whole entry): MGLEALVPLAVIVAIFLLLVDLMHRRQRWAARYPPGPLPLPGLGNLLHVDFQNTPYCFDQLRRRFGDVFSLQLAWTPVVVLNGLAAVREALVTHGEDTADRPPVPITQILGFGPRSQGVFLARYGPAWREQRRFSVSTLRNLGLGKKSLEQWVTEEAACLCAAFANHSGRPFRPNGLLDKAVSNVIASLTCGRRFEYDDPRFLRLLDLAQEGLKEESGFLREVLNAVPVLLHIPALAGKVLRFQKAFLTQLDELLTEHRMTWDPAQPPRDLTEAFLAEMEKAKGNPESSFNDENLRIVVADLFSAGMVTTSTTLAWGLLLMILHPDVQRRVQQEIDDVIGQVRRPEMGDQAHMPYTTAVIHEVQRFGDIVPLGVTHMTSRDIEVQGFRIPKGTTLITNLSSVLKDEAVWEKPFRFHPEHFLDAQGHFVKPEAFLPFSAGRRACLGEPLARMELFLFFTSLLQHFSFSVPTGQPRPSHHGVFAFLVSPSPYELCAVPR
T2 sequence (P11940 whole entry, the tested form may be a part): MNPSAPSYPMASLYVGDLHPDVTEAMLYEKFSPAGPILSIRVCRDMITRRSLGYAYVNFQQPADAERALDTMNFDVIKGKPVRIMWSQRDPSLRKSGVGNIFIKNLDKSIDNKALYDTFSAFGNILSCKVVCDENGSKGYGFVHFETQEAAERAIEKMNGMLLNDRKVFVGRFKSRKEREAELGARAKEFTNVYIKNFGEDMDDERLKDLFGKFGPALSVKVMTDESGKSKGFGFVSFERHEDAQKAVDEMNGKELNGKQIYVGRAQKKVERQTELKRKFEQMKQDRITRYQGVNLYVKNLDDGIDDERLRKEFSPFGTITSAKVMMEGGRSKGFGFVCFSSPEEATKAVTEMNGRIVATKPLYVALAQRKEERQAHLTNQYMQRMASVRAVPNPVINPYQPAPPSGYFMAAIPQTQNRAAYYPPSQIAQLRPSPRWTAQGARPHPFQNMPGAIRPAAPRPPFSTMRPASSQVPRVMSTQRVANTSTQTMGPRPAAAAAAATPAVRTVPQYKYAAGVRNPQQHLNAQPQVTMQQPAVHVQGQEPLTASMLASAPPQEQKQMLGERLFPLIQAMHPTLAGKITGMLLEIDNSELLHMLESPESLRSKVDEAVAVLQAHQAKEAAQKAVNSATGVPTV
Sequence of Cytochrome P450 3A4 (P08684 whole entry): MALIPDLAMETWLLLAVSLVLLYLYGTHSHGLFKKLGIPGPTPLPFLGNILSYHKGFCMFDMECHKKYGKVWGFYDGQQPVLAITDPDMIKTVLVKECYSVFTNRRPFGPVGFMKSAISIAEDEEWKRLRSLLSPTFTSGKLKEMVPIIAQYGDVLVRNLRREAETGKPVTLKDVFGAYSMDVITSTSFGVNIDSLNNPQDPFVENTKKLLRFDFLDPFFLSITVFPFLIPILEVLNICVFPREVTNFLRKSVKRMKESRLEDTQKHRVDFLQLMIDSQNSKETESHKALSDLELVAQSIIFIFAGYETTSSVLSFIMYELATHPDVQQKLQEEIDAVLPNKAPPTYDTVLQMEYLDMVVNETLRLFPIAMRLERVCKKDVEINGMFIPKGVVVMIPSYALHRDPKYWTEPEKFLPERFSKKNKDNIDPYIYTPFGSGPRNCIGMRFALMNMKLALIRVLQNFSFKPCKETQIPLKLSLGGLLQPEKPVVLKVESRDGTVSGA

COC(=O)[C@@]1(Cc2ccc(F)cc2)[C@H]2c3cc(C(=O)N(C)C)n(CCc4c[nH]c5ccc(OC)cc45)c3C[C@H]2CN1C(=O)c1ccccc1
AC50 (Cytochrome P450 1A2): 12.6 µM (inconclusive)
AC50 (Cytochrome P450 2C19; read-out: AC50): 39.8 µM (inconclusive)

Cc1cc(C)n(C(=O)c2ccc([N+](=O)[O-])cc2[N+](=O)[O-])n1
IC50 (cells): 43.6 µM (active)

O=C(Oc1ccccc1)c1cccc(COC(=O)c2cnccn2)c1
IC50 (cells): 6.99 µM (active)

COc1ccc2[nH]cc(CCNc3ncnc4ccc(-c5ccccc5CN(C)C)cc34)c2c1
AC50 (Cytochrome P450 1A2): 31.6 µM (inconclusive)

CC1(C)Nc2ccccc2N(Cc2ccc([N+](=O)[O-])cc2)C1=O
AC50 [1]: 3.92 µM (active)

COc1ccc(CNC(=O)c2cc3cccc(O)c3oc2=N)cc1
IC50 (cells): 47.8 µM (active)

COc1cccc(Cn2c(=O)c(-c3cn(C)c4ccccc34)nc3cnc(N4CCNCC4)nc32)c1
AC50 (Cytochrome P450 1A2): 15.8 µM (inconclusive)
AC50 (Cytochrome P450 3A4): 15.8 µM (inconclusive)
AC50 (Cytochrome P450 2D6): 39.8 µM (inconclusive)

O=C(CCNC(=O)Cn1cnc2ccccc2c1=O)NCC1COc2ccccc2O1 (centres undefined)
AC50 (Cytochrome P450 1A2): 0.01 µM (inconclusive)

OCC/N=C1\CCCc2c1[nH]c1ccc(Br)cc21
AC50 (Cytochrome P450 1A2): 0.251 µM (inconclusive)
EC50 [2]: 48.8 µM (active)
EC50 [3]: < 0.1 µM (active)
AC50 (Cytochrome P450 2D6): 1 µM (inconclusive)
EC50 [4]: 8.41 µM (active)
AC50 (Cytochrome P450 2C9): 7.08 µM (inconclusive)

CC#CCCCC(=O)Nc1ccc(C(=O)O)cc1
AC50 (Cytochrome P450 1A2): 28.2 µM (inconclusive)
AC50 (Cytochrome P450 2C19): inconclusive
AC50 (Cytochrome P450 2C9): 39.8 µM (inconclusive)

COC(=O)c1ccc(NC(=O)c2ccc(CN3CCOCC3)cc2)cc1
AC50 [5]: 43.4 µM (active)

Cc1c(C(=O)N2CCCCCC2)nnn1-c1nonc1N
AC50 (Cytochrome P450 1A2): 15.8 µM (inconclusive)
AC50 (Cytochrome P450 2D6): 17.8 µM (inconclusive)
AC50 (Cytochrome P450 2C9): 14.1 µM (inconclusive)

O=C(Nc1cc(Oc2ccccc2)cc([N+](=O)[O-])c1)C12CC3CC(C1)CC(n1cnc(Cl)n1)(C3)C2
EC50 [6]: 1.51 µM (active)
CC50 [7]: > 40 µM (active)
EC50 [8]: > 60 µM (not active)

COc1c(O)cccc1[C@H](O)C1CCN(CCc2ccc(F)cc2)CC1
IC50 [9]: 36.9 µM (inactive)
EC50 [10]: 14.4 µM (active)
IC50 [11]: > 66 µM (inactive)
EC50 [12]: 13.7 µM (active)

CN1CCN(Cn2cc(/C=C/C(=O)c3ccccc3)c3ccccc32)CC1
EC50 (H4): 18.9 µM (active)
EC50 [13]: 0.148 µM (active)
CC50 [7]: > 40 µM (active)
EC50 [14]: 0.233 µM (active)

O=C(Nc1cccc(-c2cn3ccccc3n2)c1)c1ccccc1
AC50 [1]: 2.89 µM (active)

CC1(C)CCC(C)(C)c2cc(C(=O)Nc3ccc(C(=O)O)cc3)ccc21
AC50 (Cytochrome P450 1A2): 31.6 µM (inconclusive)
AC50 (Cytochrome P450 2C19; read-out: AC50): 31.6 µM (inconclusive)
AC50 (Cytochrome P450 2C9): 15.8 µM (inconclusive)

O=C(c1cnn2c(C(F)F)cc(-c3ccccc3)nc12)N1CCc2ccccc2C1
CC50 [7]: > 40 µM (active)

Oc1ccccc1CN1CCCC(N2CCN(c3cccc(C(F)(F)F)c3)CC2)C1 (centres undefined)
IC50 (cells): 22.9 µM (active)

CC(C)c1nnc(NC(=O)c2cc3cc(Br)ccc3oc2=O)s1
IC50 (cells): 0.66 µM (active)

O=C(O)CCc1ccc(-c2ccccc2)n1-c1ccc(C(=O)O)cc1
EC50 [10]: > 300 µM (not active)
EC50 [12]: > 300 µM (not active)

C[C@@H]1CN([C@@H](C)CO)C(=O)c2cc(C3=CCCC3)cnc2O[C@@H]1CN(C)Cc1ccc(C(=O)O)cc1
AC50 [5]: 10.9 µM (active)

CCc1cc(-c2nnc(S)n2-c2cccc(C)c2)cs1
AC50 [1]: 3.65 µM (active)

COc1cc(/C=N/Nc2nc(O)nnc2C)cc([N+](=O)[O-])c1O
EC50 [10]: 7.98 µM (active)
EC50 [12]: 10.8 µM (inconclusive)

COc1cccc(NC(=O)c2ccc(Cn3cc([N+](=O)[O-])cn3)o2)c1
IC50 (cells): 18.5 µM (active)

CCC(c1nnnn1CC1CCCO1)N(CCN1CCOCC1)Cc1cc2cc(C)ccc2nc1O (centres undefined)
AC50 (Cytochrome P450 1A2): 25.1 µM (inconclusive)

CCCCCc1ccc(S(=O)(=O)NCCc2ccncc2)cc1
CC50 [7]: 12.1 µM (active)

CCN(CC)CCN(Cc1cc2ccc(C)c(C)c2nc1O)C(S)=NCc1ccco1
EC50 [10]: > 300 µM (not active)
EC50 [12]: > 300 µM (not active)
CC50 [15]: > 50 µM (active)

CN(C)C(=O)c1ccc(-c2nc(NCc3cccnc3)c3ccccc3n2)cc1
AC50 (Cytochrome P450 1A2): 10 µM (inconclusive)
AC50 (Cytochrome P450 2D6): 39.8 µM (inconclusive)

COc1c(/C=C2/C(=O)NC(=O)N(C)C2=O)c(CCN(C)C(=O)c2ccccc2)cc2c1OCO2
EC50 [10]: > 300 µM (not active)
EC50 [12]: > 300 µM (not active)

Nc1cc(C(=O)O)ccc1Nc1ccc(F)c(F)c1
AC50 [1]: 0.345 µM (active)

SC1=Nc2ccc(Cl)cc2C(c2ccccc2)=NC1
EC50 [16]: > 260 µM (inactive)
IC50 (cells): > 50 µM (active)

Sc1nnc(-c2ccc(Cl)cc2)n1-c1ccc(Cl)cc1
AC50 [1]: 4.74 µM (active)

COc1ccc(CCSc2nnc(C3CCCCC3)n2N)cc1
AC50 [1]: 2.81 µM (active)

COC(=O)[C@H](C)[C@H]1C[C@]1(C)[C@H](NC(=O)OCc1ccccc1)c1ccccc1
AC50 (Cytochrome P450 1A2): 15.8 µM (inconclusive)
